Bridge positions count the residues as written; N and C are the ends. Square brackets hold non-standard residues; d marks the D form. Peptide text beside a SMILES is read from it. βAla = NCCC(=O)O
Columns and labels:
[1] = tested on: HL-60 cells transduced with LV-pLG or LV-shRNA; test: PI staining cytotoxicity in NPM1 knock-down cells; format: cell-based, Human; settings: 20 or 40 µM, 5 h, n = 3
Description: Cells were infected with HIV-based third-generation lentiviral particles according to experimental conditions previously described. […]. After virus production and subsequent titration, cells were infected by spinoculation in the presence of polybrene (8 µg/mL) and at 10× multiplicity of infection. On the next day, fresh medium was added, and the cells were allowed to recover for another 48 h. Finally, infected cells were analyzed by flow cytometry and Western blot for evaluation of GFP expression and NPM1 protein levels, respectively.
Figure 4 Lentiviral vector-mediated knock-down of NPM1 in AML cells: (A) Flow cytometry analysis of GFP expression in transduced HL-60 cells at day 7 post-infection. Percentage of GFP+ cells was determined on live-cell population (R1 gate in dot plots); (B) Immunoblots from HL-60 transduced cells showing NPM1 protein knock-down in LV-shRNA infected cells. Densitometry analysis values of NPM1 bands were normalized to β-actin and then to untransduced cells; (C) GFP expression levels and (D) viability of transduced HL-60 cells were followed by flow cytometry during three weeks post-infection; (E) Sensibility of transduced cells toward the cytotoxic effect of CIGB-300 was evaluated by PI staining. Cells were incubated with 20 or 40 µM of CIGB-300 for 5 h, stained with PI solution, and then analyzed by flow cytometry. […]

[2] = tested on: chronic and acute T-cell lymphocytic leukemia (CLL and T-ALL); settings: read-out: IC50, estimated values; cited from earlier work
Description: In contrast with solid tumor cells, which display a heterogenous sensitivity profile, leukemia cells are more sensitive to CIGB-300 anti-proliferative effects. Indeed, in a panel containing human lung, cervix, prostate, and colon cancer cell lines, the IC50 values for CIGB-300 ranged between 20 and 300 µM [32], while in chronic and acute T-cell lymphocytic leukemia (CLL and T-ALL), the estimated values were all below 40 µM [34, 44].

[3] = tested on: CK2 substrates in OCI-AML3 cells; test: Phosphoproteomic analysis; format: cell-based, Human; settings: 40 µM, 30 min, three replicates
Description: (§1) Sample preparation, phosphopeptide enrichment, and nanoLC-MS/MS for phosphoproteomic analysis of AML cells treated or not with 40 µM CIGB-300 during 30 min were conducted as previously described. Briefly, three replicates from each condition were processed by multienzyme digestion filter-aided sample preparation (MED-FASP) with overnight lys-C and tryptic digestions and the phosphopeptides enriched by TiO2 chromatography. Phosphopeptides were later injected through an EASY-nLC 1200 system into a QExactive HF mass spectrometer (Thermo Scientific, USA) using a home-made column ([…], 20 cm length), and were separated with a gradient from 5% buffer B (0.1% formic acid in acetonitrile) up to 30% in 45 min, 30–60% in 5 min, and 60–95% in 5 min more.
(§2) Data processing and quantification were performed in MaxQuant software (v1.6.2.10) and Perseus computational platform (v1.6.2.2). Phosphopeptides dataset was filtered of reverse and potential contaminants hits, and only phosphosites with localization probability above 0.75 were retained for further analysis. Additionally, only those phosphopeptides represented in each group were considered, and differences in phosphosites occupancy higher than 25% were selected as significant changes. Enzyme–substrate relations were retrieved using post-translational modification resource iPTMnet and web-based tool KEA2 [48, 49]. In addition to well-documented substrates, we searched for candidate CK2 substrates based on the presence of the CK2 consensus sequence, the enzyme–substrate predictions retrieved from NetworKIN database, the dataset of high confidence CK2 substrates reported by Bian et al., and the phosphoproteins that interact with protein kinase CK2 according to the Metascape database.

[4] = tested on: CK2 substrates in HL-60 cells; test: Phosphoproteomic analysis; format: cell-based, Human; settings: 40 µM, 30 min, three replicates
Description: as §1, §2

[5] = tested on: NPM1 S125; test: Western blot of CK2-mediated NPM1 phosphorylation; format: cell-based, Human; settings: both AML cell lines (HL-60, OCI-AML3), 40 µM
Description: Cells were lysed in RIPA buffer containing protease/phosphatase inhibitor (Thermo Fisher Scientific, Waltham, MA, USA), and equal amounts of protein were resolved in 12.5% SDS-PAGE [46]. Next, proteins were transferred to a nitrocellulose membrane and immunoblotted with the following antibodies according to instructions from the manufacturer: NPM1, p-NPM1 (S125), and CK2α (Abcam, Cambridge, United Kingdom) and β-actin (Sigma, St. Louis, MO, USA). Detection was performed with peroxidase-conjugated anti-mouse or anti-rabbit IgG (Sigma, St. Louis, MO, USA), and signal was developed using SuperSignal West Pico Chemiluminescent Substrate (Thermo Fisher Scientific, Waltham, MA, USA).
Figure S2. CIGB-300 peptide impairs CK2-mediated phosphorylation of NPM1 in AML cells. Cells treated with
40 µM of CIGB-300 during the indicated times were analyzed by western blot using phospho-specific and total […]

[6] = tested on: OCI-AML3 cells; test: Cell cycle analysis by PI staining and flow cytometry; format: cell-based, Human; settings: 40 µM, 24 h
Description: (§3) For cell cycle analysis, AML cells were incubated with 40 µM CIGB-300 during 24 h. Following treatment with the peptide, cells were collected by centrifugation, washed with PBS, and fixed at 4 °C for 30 min with ice-cold 70% ethanol. After fixation, cells were treated with DNase-free RNase A (Sigma, St. Louis, MO, USA) and subsequently stained at 37 °C for 20 min with 50 µg/mL PI solution (Sigma, St. Louis, MO, USA). Stained cells were analyzed in the abovementioned Partec CyFlow Space flow cytometry, and FlowJo Software (v7.6.1) was used for data processing and visualization.

[7] = tested on: HL-60 cells; test: as above; format: cell-based, Human; settings: 40 µM, 24 h
Description: as §3

[8] = tested on: primary cells from AML patients' bone marrow samples; test: Annexin V/PI staining, flow cytometry; format: cell-based, Human; settings: primary cells from the majority of AML patients' bone marrow samples; 40 µM, 48 h
Text: Bone marrow samples from five AML patients with high leukemia involvement were collected in accordance with the Declaration of Helsinki after informed consent and ethical approval of the Clinical Research Board from the Center for Genetic Engineering and Biotechnology (CIGB, Havana, Cuba) (Table S1). Mononuclear cells from bone marrow samples were isolated using Ficoll-Paque (GE Healthcare, Chicago, IL, USA) density gradient centrifugation. Cells were maintained under standard cell culture conditions.
Viability of AML cells was measured using FITC Annexin V Apoptosis Detection Kit I (BD Biosciences, San Jose, CA, USA). Briefly, cell lines were incubated with 40 µM CIGB-300 for 3 and 5 h, while primary cells were incubated during 48 h. Following incubation, cells were washed twice with cold PBS and resuspended in binding buffer (1×) at a final concentration of 1 × 10^6 cells/mL. Subsequently, 5 µL of FITC Annexin V and PI were added, and cell suspensions were incubated for 15 min at room temperature in the dark. Flow cytometric analysis of stained cells was performed in Partec CyFlow Space instrument (Sysmex Partec GmbH, Gorlitz, Germany), and FlowJo software (v7.6.1) (BD, Ashland, OR, USA) was used for data analysis and visualization.

[9] = target: T1, CK2α catalytic subunit (Homo sapiens, UniProt P68400); test: In vivo pull-down followed by immunodetection; format: binding; settings: AML cells, immunoblot
T1 construct: endogenous in cells
Description: For in vivo pull-down assays, CIGB-300 with N-terminal biotin tag (CIGB-300-B) was added to AML cells at a final concentration of 40 µM and incubated for 30 min. Subsequently, cells were collected, washed, and lysed in hypotonic PBS solution (0.1×) containing 1 mM DTT (Sigma, St. Louis, MO, USA) and complete protease inhibitor (Roche, Basel, Switzerland) by eight freeze–thaw (liquid nitrogen/37 °C) cycles. Cellular lysates were cleared by centrifugation, and 300 µg of total protein was added to 30 µL of pre-equilibrated streptavidin–sepharose matrix (GE Healthcare, Chicago, IL, USA). Following 1 h at 4 °C, the matrix was collected by centrifugation and extensively washed with PBS solution (1×) containing 1 mM DTT. Proteins bound to streptavidin–sepharose matrix were digested with trypsin (Promega, Madison, WI, USA) during 16 h or eluted for western blot analysis. In parallel, untreated cells were subjected to the same experimental procedure to identify those proteins non-specifically bound to streptavidin–sepharose matrix.
Cells were lysed in RIPA buffer containing protease/phosphatase inhibitor (Thermo Fisher Scientific, Waltham, MA, USA), and equal amounts of protein were resolved in 12.5% SDS-PAGE [46]. […]

[10] = tested on: HL-60 cells; set-up: method as in PMID 24283803, PMID 33562780; settings: cited from earlier work

T1 sequence (P68400 whole entry): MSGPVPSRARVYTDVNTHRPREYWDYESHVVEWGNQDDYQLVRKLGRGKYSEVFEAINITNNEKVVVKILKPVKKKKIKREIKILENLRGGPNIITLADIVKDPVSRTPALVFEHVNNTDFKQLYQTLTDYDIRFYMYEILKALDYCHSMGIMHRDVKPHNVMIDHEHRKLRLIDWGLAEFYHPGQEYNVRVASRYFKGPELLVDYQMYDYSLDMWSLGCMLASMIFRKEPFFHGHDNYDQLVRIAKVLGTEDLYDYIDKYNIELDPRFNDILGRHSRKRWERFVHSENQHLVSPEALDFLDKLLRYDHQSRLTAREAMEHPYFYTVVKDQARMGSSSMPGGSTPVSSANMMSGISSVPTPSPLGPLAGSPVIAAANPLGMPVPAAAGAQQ

CSCC[C@@H]1NC(=O)[C@H](Cc2c[nH]c3ccccc23)NC(=O)[C@@H](NC(=O)CCNC(=O)[C@H](CCC(N)=O)NC(=O)[C@@H]2CCCN2C(=O)[C@@H]2CCCN2C(=O)[C@H](CCCNC(=N)N)NC(=O)[C@H](CCCNC(=N)N)NC(=O)[C@H](CCCNC(=N)N)NC(=O)[C@H](CCC(N)=O)NC(=O)[C@H](CCCNC(=N)N)NC(=O)[C@H](CCCNC(=N)N)NC(=O)[C@H](CCCCN)NC(=O)[C@H](CCCCN)NC(=O)[C@H](CCCNC(=N)N)NC(=O)CN)CSSC[C@@H](C(=O)O)NC(=O)[C@H]([C@@H](C)O)NC(=O)CNC(=O)[C@H](CC(C)C)NC(=O)[C@H](Cc2c[nH]cn2)NC(=O)[C@H](CCCNC(=N)N)NC(=O)[C@@H]2CCCN2C(=O)[C@H](CO)NC1=O [CIGB-300] (H-GRKKRRQRRRPPQ[βAla]CWMSPRHLGTC-OH; disulfide 15-25; N-terminus and C-terminus assumed)
sensibility toward cytotoxic effect, LV-shRNA (NPM1 knock-down roughly 85%) vs LV-pLG [1]: no differential sensibility
IC50 [2]: < 40 µM
Occupancy Treated–Control, BCLAF1 S397 (Q9NYF8) [3]: −0.3056 ^1
Occupancy Treated–Control, BRCA1 S1164 (P38398) [3]: −0.3932
Occupancy Treated–Control, CEP170 S1112 (Q5SW79) [3]: −0.4366
Occupancy Treated–Control, DKC1 S494 (O60832) [3]: −0.2948 ^1
Occupancy Treated–Control, EIF5B S214 (O60841) [3]: −0.2868
Occupancy Treated–Control, HNRNPC S220 (P07910) [3]: −0.4698
Occupancy Treated–Control, HNRNPC S225 (P07910) [3]: −0.4597
Occupancy Treated–Control, MCM2 S13 (P49736) [3]: −0.4061 ^2
Occupancy Treated–Control, MCM2 S139 (P49736) [3]: −0.3422 ^2
Occupancy Treated–Control, NAP1L4 S7 (Q99733) [3]: −0.2719
Occupancy Treated–Control, NOP56 S520 (O00567) [3]: −0.3705
Occupancy Treated–Control, SEPTIN2 S218 (Q15019) [3]: −0.4261 ^1, 2
Occupancy Treated–Control, SRSF11 S433 (Q05519) [3]: −0.3794
Occupancy Treated–Control, STT3B S499 (Q8TCJ2) [3]: −0.3445
Occupancy Treated–Control, TOP2A S1247 (P11388) [3]: −0.3351
Occupancy Treated–Control, TOP2B S1550 (Q02880) [3]: −0.2936
Occupancy Treated–Control, ABCF1 S140 (Q8NE71) [4]: −0.2693 ^2
Occupancy Treated–Control, AP3B1 S276 (O00203) [4]: −0.427
Occupancy Treated–Control, BCLAF1 S397 (Q9NYF8) [4]: −0.2902 ^1
Occupancy Treated–Control, C1orf52 S158 (Q8N6N3) [4]: −0.3645
Occupancy Treated–Control, DDX24 S82 (Q9GZR7) [4]: −0.3284
Occupancy Treated–Control, DKC1 S485 (O60832) [4]: −0.3777
Occupancy Treated–Control, DKC1 S494 (O60832) [4]: −0.3312 ^1
Occupancy Treated–Control, EIF3C S39 (Q99613) [4]: −0.2738 ^2
Occupancy Treated–Control, EIF4G1 S1198 (Q04637) [4]: −0.276
Occupancy Treated–Control, FKBP15 S346 (Q5T1M5) [4]: −0.25
Occupancy Treated–Control, HIRIP3 S196 (Q9BW71) [4]: −0.2842
Occupancy Treated–Control, HIRIP3 S199 (Q9BW71) [4]: −0.2649
Occupancy Treated–Control, HMGA1 S44 (P17096) [4]: −0.3177
Occupancy Treated–Control, LEMD3 S144 (Q9Y2U8) [4]: −0.3252
Occupancy Treated–Control, LYN S13 (P07948) [4]: −0.3987
Occupancy Treated–Control, M6PR S267 (P20645) [4]: −0.26
Occupancy Treated–Control, MCM2 S41 (P49736) [4]: −0.421 ^2
Occupancy Treated–Control, NAP1L4 S125 (Q99733) [4]: −0.3398
Occupancy Treated–Control, PABPC1 T319 (P11940) [4]: −0.2931
Occupancy Treated–Control, PAK2 T169 (Q13177) [4]: −0.2963
Occupancy Treated–Control, PNN S381 (Q9H307) [4]: −0.2998
Occupancy Treated–Control, SEPTIN2 S218 (Q15019) [4]: −0.2677 ^1, 2
Occupancy Treated–Control, SRSF11 S464 (Q05519) [4]: −0.3301
Occupancy Treated–Control, ST13 S75 (P50502) [4]: −0.2852
Occupancy Treated–Control, STMN1 S63 (P16949) [4]: −0.3357 ^2
Occupancy Treated–Control, THRAP3 S211 (Q9Y2W1) [4]: −0.2914
Occupancy Treated–Control, TMPO S66 (P42166) [4]: −0.4836
Occupancy Treated–Control, TMPO S67 (P42166) [4]: −0.4836
Occupancy Treated–Control, TOP2A S1106 (P11388) [4]: −0.2854
Occupancy Treated–Control, XRCC6 S520 (P12956) [4]: −0.3763
CK2-mediated phosphorylation at S125 residue of NPM1 [5]: inhibition of CK2-mediated phosphorylation
effect on cell cycle progression [6]: no change in cell cycle distribution
effect on cell cycle progression [7]: accumulation of HL-60 cells in S phase
effect on viability (Annexin V-FITC/PI) [8]: promoted apoptosis
interaction with CK2α subunit [9]: clear interaction

O=C(O)c1ccc2c(c1)nc(Nc1cccc(Cl)c1)c1ccncc12 [CX-4945]
response toward cytotoxic effect [10]: refractoriness
